Reference: patent publication US20250230193A1, “CYCLIC COMPOUND HAVING SELECTIVE KRAS INHIBITORY EFFECT ON HRAS AND NRAS” (CHUGAI SEIYAKU KABUSHIKI KAISHA, priority 2022, published 2025)
Where a SMILES comes first, the peptide text is derived from it. Bridges are numbered along the chain shown (N, C = ends). [ ]: non-standard residue; d: D form. The star is where a group is joined. hPhe(3-Cl-4-CF3) = N[C@@H](CCc1ccc(C(F)(F)F)c(Cl)c1)C(=O)O; NPrPhe(4-CF3) = CCCN[C@@H](Cc1ccc(C(F)(F)F)cc1)C(=O)O; Pip(4,4-F2) = O=C(O)[C@@H]1CC(F)(F)CCN1; NMeGly(cPent) = CN[C@H](C(=O)O)C1CCCC1; Hyp = O=C(O)[C@@H]1C[C@@H](O)CN1; NMeD = CN[C@@H](CC(=O)O)C(=O)O; NMeL = CN[C@@H](CC(C)C)C(=O)O; Morpholide = C1CN(*)CCO1; NMeA = CN[C@@H](C)C(=O)O; Ac5c = NC1(C(=O)O)CCCC1; Aze = O=C(O)[C@@H]1CCN1; NEtG = CCNCC(=O)O; Sar = CNCC(=O)O

Tests used:
[1] = biological target: GDP-bound NRAS wild-type protein (Homo sapiens, UniProt P01111); experiment: Binding to NRAS by surface plasmon resonance (SPR), Single Cycle Kinetics; conditions: SPR; for NRAS/KRAS (ratio of KD value with respect to NRAS to KD value with respect to KRAS) / NRAS/KRAS (ratio of KD value for NRAS to KD value for KRAS): GDP-bound NRAS wild-type vs GDP-bound KRAS wild-type
[2] = biological target: GDP-bound HRAS wild-type protein (Homo sapiens, UniProt P01112); experiment: Binding to HRAS by surface plasmon resonance (SPR), Single Cycle Kinetics; conditions: SPR; for HRAS/KRAS (ratio of KD value with respect to HRAS to KD value with respect to KRAS) / HRAS/KRAS (ratio of KD value for HRAS to KD value for KRAS): GDP-bound HRAS wild-type vs GDP-bound KRAS wild-type
GDP-bound HRAS wild-type protein, sequence (P01112 whole entry): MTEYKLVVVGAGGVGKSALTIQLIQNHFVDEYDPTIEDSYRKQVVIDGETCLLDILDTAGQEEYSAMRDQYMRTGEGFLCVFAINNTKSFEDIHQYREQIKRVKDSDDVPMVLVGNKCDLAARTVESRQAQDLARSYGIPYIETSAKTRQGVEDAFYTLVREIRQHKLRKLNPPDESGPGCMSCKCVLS

GDP-bound NRAS wild-type protein, sequence (P01111 whole entry): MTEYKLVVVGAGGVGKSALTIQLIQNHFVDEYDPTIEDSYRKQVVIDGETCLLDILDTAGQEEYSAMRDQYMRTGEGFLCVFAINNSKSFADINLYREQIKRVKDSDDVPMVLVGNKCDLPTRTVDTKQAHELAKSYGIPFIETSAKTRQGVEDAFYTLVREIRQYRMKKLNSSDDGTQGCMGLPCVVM

CC[C@H](C)[C@@H]1NC(=O)[C@H](CC(C)C)N(C)C(=O)C[C@@H](C(=O)N(C)CC)N(C)C(=O)[C@H](C2CCCC2)N(C)C(=O)C2(CC(C)(C)C2)NC(=O)[C@@H]2C[C@H](C)CN2C(=O)[C@H](CCc2ccc(C(F)(F)F)c(OC)c2)NC(=O)CN(C)C(=O)[C@H](Cc2ccc(C)cc2)N2CC/C=C\C[C@@H](C2=O)N(C)C(=O)[C@@H]2CCCN2C1=O [PP2410]
NRAS/KRAS (ratio of KD value with respect to NRAS to KD value with respect to KRAS) [1]: A (a compound having 10 or more and less than 20 is denoted as A)
HRAS/KRAS (ratio of KD value with respect to HRAS to KD value with respect to KRAS) [2]: A (a compound having 10 or more and less than 20 is denoted as A)

CCO[C@@H]1C[C@H]2C(=O)NC3(CCC3)C(=O)N(C)[C@@H](C3CCCC3)C(=O)N(C)[C@H](C(=O)N3CCOCC3)CC(=O)N(C)[C@@H](Cc3ccccc3C#N)C(=O)N[C@@H]([C@@H](C)CC)C(=O)N(C)CC(=O)N(C)[C@H]3CCCCCN(C3=O)[C@@H](Cc3ccc(C(F)(F)F)cc3)C(=O)N(C)CC(=O)N[C@@H](CCc3cc(F)c(C(F)(F)F)c(F)c3)C(=O)N2C1 [PP1165]
NRAS/KRAS (ratio of KD value with respect to NRAS to KD value with respect to KRAS) ([1]; KD ratio): A (a compound having 10 or more and less than 20 is denoted as A)
HRAS/KRAS (ratio of KD value with respect to HRAS to KD value with respect to KRAS) ([2]; KD ratio): B (a compound having 3 or more and less than 10 is denoted as B)

CCO[C@@H]1C[C@H]2C(=O)NC3(CC(C)(C)C3)C(=O)N(C)[C@@H](C3CCCC3)C(=O)N(C)[C@H](C3CCC3)CC(=O)N(C)[C@@H](CC3CC3)C(=O)N[C@@H]([C@@H](C)CC)C(=O)N(C)CC(=O)N(C)[C@H]3C/C=C\CCN(C3=O)[C@@H](Cc3ccc(C(F)(F)F)cc3)C(=O)N(C)CC(=O)N[C@@H](CCc3cc(F)c(C(F)(F)F)c(F)c3)C(=O)N2C1 [PP1635]
NRAS/KRAS (ratio of KD value for NRAS to KD value for KRAS) ([1]; KD ratio): B (a compound having 3 or more and less than 10 is denoted as B)
HRAS/KRAS (ratio of KD value for HRAS to KD value for KRAS) ([2]; KD ratio): A (a compound having 10 or more and less than 20 is denoted as A)

CC[C@H](C)[C@@H]1NC(=O)[C@H](C)N(C)C(=O)C[C@@H](C(=O)N(C)C)N(C)C(=O)[C@H](C2CCCC2)N(C)C(=O)C2(CCC2)NC(=O)[C@@H]2CC(F)(F)CN2C(=O)[C@H](CCc2cc(F)c(C(F)(F)F)c(F)c2)NC(=O)CN(C)C(=O)[C@H](Cc2ccc(C(F)(F)F)cc2)N2CC/C=C\C[C@@H](C2=O)N(C)C(=O)CN(C)C1=O [PP1103]
NRAS/KRAS (ratio of KD value with respect to NRAS to KD value with respect to KRAS) ([1]; KD ratio): A (a compound having 10 or more and less than 20 is denoted as A)
HRAS/KRAS (ratio of KD value with respect to HRAS to KD value with respect to KRAS) ([2]; KD ratio): B (a compound having 3 or more and less than 10 is denoted as B)

CCCN1C(=O)[C@@H]2CCN2C(=O)[C@H](C)N(C)C(=O)[C@H]([C@@H](C)CC)NC(=O)[C@H](CC(C)C)N(C)C(=O)C[C@@H](C(=O)N2CCOCC2)N(C)C(=O)[C@H](C2CCCC2)N(C)C(=O)C2(CCCC2)NC(=O)[C@@H]2CC(F)(F)CCN2C(=O)[C@H](CCc2ccc(C(F)(F)F)c(Cl)c2)NC(=O)CN(C)C(=O)[C@@H]1Cc1ccc(C(F)(F)F)cc1 [PP0285] ([NMeL]I[NMeA][Aze][NPrPhe(4-CF3)][Sar][hPhe(3-Cl-4-CF3)][Pip(4,4-F2)][Ac5c][NMeGly(cPent)][NMeD]-Morpholide; lactam N-11)
NRAS/KRAS (ratio of KD for GDP-bound NRAS wild-type to KD for KRAS) ([1]; KD ratio NRAS/KRAS): C (A compound having a KD ratio of 0.1 or more and less than 3 is denoted as C)
HRAS/KRAS (ratio of KD for GDP-bound HRAS wild-type to KD for KRAS) ([2]; KD ratio HRAS/KRAS): B (a compound having 3 or more and less than 10 is denoted as B)

CCO[C@@H]1C[C@H]2C(=O)NC3(CCC3)C(=O)N(C)[C@@H](C3CCCC3)C(=O)N(C)[C@H](C(=O)N(C)C)CC(=O)N(C)[C@@H](CC(C)C)C(=O)N[C@@H]([C@@H](C)CC)C(=O)N(C)CC(=O)N(C)[C@H]3CCCCCN(C3=O)[C@@H](Cc3ccc(F)cc3)C(=O)N(C)CC(=O)N[C@@H](CCc3ccc(C(F)(F)F)c(Cl)c3)C(=O)N2C1 [PP0972]
NRAS/KRAS (ratio of KD value with respect to NRAS to KD value with respect to KRAS) ([1]; KD ratio): B (a compound having 3 or more and less than 10 is denoted as B)
HRAS/KRAS (ratio of KD value with respect to HRAS to KD value with respect to KRAS) ([2]; KD ratio): B (a compound having 3 or more and less than 10 is denoted as B)

CCCOC[C@H]1C(=O)N[C@@H]([C@@H](C)CC)C(=O)N(C)CC(=O)N(C)[C@H]2C/C=C\CCN(C2=O)[C@@H](Cc2ccc(C(F)(F)F)cc2)C(=O)N(C)CC(=O)N[C@@H](CCc2ccc(C(F)(F)F)c(OC)c2)C(=O)N2C[C@@H](C)C[C@H]2C(=O)NC2(CC(C)(C)C2)C(=O)N(C)[C@@H](C2CCCC2)C(=O)N(C)[C@H](C(=O)N(C)CC)CC(=O)N1C [PP1995]
NRAS/KRAS (ratio of KD value for NRAS to KD value for KRAS) ([1]; KD ratio): A (a compound having 10 or more and less than 20 is denoted as A)
HRAS/KRAS (ratio of KD value for HRAS to KD value for KRAS) ([2]; KD ratio): B (a compound having 3 or more and less than 10 is denoted as B)

CCCN1C(=O)CN(C)C(=O)CN(CC)C(=O)[C@H]([C@@H](C)CC)NC(=O)[C@H](CC(C)C)N(C)C(=O)C[C@@H](C(=O)N2CCOCC2)NC(=O)[C@H](C2CCCC2)N(C)C(=O)C2(CCCC2)NC(=O)[C@@H]2CCCN2C(=O)[C@H](CCc2ccc(C(F)(F)F)c(Cl)c2)NC(=O)CN(C)C(=O)[C@@H]1Cc1ccc(C(F)(F)F)cc1 [PP0331] ([NMeL]I[NEtG][Sar][NPrPhe(4-CF3)][Sar][hPhe(3-Cl-4-CF3)]P[Ac5c][NMeGly(cPent)]D-Morpholide; lactam N-11)
NRAS/KRAS (ratio of KD for GDP-bound NRAS wild-type to KD for KRAS) ([1]; KD ratio NRAS/KRAS): B (a compound having 3 or more and less than 10 is denoted as B)
HRAS/KRAS (ratio of KD for GDP-bound HRAS wild-type to KD for KRAS) ([2]; KD ratio HRAS/KRAS): B (a compound having 3 or more and less than 10 is denoted as B)

CCCN1C(=O)CN(C)C(=O)CNC(=O)[C@H]([C@@H](C)CC)NC(=O)[C@H](CC(C)C)N(C)C(=O)C[C@@H](C(=O)N(C)C)N(C)C(=O)[C@H](C2CCCC2)N(C)C(=O)C2(CCCC2)NC(=O)[C@@H]2C[C@@H](OCC)CN2C(=O)[C@H](CCc2ccc(C(F)(F)F)c(Cl)c2)NC(=O)CN(C)C(=O)[C@@H]1Cc1ccc(C(F)(F)F)cc1 [PP0421] ([NMeL]IG[Sar][NPrPhe(4-CF3)][Sar][hPhe(3-Cl-4-CF3)][Hyp](Et)[Ac5c][NMeGly(cPent)][NMeD]-NMe2; lactam N-11)
NRAS/KRAS (ratio of KD value with respect to GDP-bound NRAS wild-type protein to KD value with respect to KRAS) ([1]; KD ratio NRAS/KRAS): B (a compound having 3 or more and less than 10 is denoted as B)
HRAS/KRAS (ratio of KD value with respect to GDP-bound HRAS wild-type protein to KD value with respect to KRAS) ([2]; KD ratio HRAS/KRAS): C (A compound having a KD ratio of 0.1 or more and less than 3 is denoted as C)

CCCO[C@@H]1CCN2C(=O)[C@H](CCc3cc(F)c(C(F)(F)F)c(F)c3)NC(=O)CN(C)C(=O)[C@H](Cc3ccc(C(F)(F)F)cc3)N3CCCC[C@@H](C3=O)N(C)C(=O)CN(C)C(=O)[C@H]([C@@H](C)CC)NC(=O)[C@H](CC(C)C)N(C)C(=O)C[C@@H](C(=O)N3CCOCC3)N(C)C(=O)[C@H](C3CCCC3)N(C)C(=O)C3(CCC3)NC(=O)[C@H]12 [PP1080]
NRAS/KRAS (ratio of KD value with respect to NRAS to KD value with respect to KRAS) ([1]; KD ratio): B (a compound having 3 or more and less than 10 is denoted as B)
HRAS/KRAS (ratio of KD value with respect to HRAS to KD value with respect to KRAS) ([2]; KD ratio): B (a compound having 3 or more and less than 10 is denoted as B)
